According to ChEMBL document CHEMBL4402553, “Recent advances in the discovery and development of glyoxalase I inhibitors” (Bioorg Med Chem, 2020):

Legend:
Lactoylglutathione lyase [1] = molecular target: T1, Lactoylglutathione lyase (Homo sapiens, UniProt Q04760); test: Competitive inhibition of human Glyoxalase-1 using GSH and MGO as substrate
Lactoylglutathione lyase [2] = molecular target: T1, Lactoylglutathione lyase; test: Competitive inhibition of human Glyoxalase-1 using GSH and MGO as substrate by Michaelis-Menten analysis
Lactoylglutathione lyase [3] = molecular target: Lactoylglutathione lyase (Mus musculus, UniProt Q9CPU0); test: Competitive inhibition of recombinant mouse His-tagged Glyoxalase-1 using GSH and MGO as substrate by spectrophotometric method
Lactoylglutathione lyase [4] = molecular target: T1, Lactoylglutathione lyase; test: Inhibition of human Glyoxalase-1
Lactoylglutathione lyase [5] = molecular target: T1, Lactoylglutathione lyase; test: Inhibition of Glyoxalase-1 (unknown origin)

T1 sequence (Q04760 whole entry): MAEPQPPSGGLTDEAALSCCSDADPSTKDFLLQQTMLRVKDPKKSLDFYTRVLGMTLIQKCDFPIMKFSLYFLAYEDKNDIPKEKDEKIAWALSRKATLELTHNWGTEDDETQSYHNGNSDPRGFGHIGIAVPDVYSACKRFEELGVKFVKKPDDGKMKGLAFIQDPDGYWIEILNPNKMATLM
Chain of Lactoylglutathione lyase (Mus musculus, UniProt Q9CPU0) (Q9CPU0 whole entry): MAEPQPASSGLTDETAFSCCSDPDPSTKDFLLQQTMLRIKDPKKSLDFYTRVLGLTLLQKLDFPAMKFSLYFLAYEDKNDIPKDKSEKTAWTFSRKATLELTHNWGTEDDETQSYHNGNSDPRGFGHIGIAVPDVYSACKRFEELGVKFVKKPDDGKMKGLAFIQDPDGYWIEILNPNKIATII

C#Cc1cccc(N(O)C(=O)CC[C@H](NC(=O)CC[C@H](N)C(=O)O)C(=O)NCC(=O)O)c1
Ki (Lactoylglutathione lyase [1]): 1 nM

C#Cc1cccc(N(O)C(=O)SC[C@H](NC(=O)CC[C@H](N)C(=O)O)C(=O)NCC(=O)O)c1
Ki (Lactoylglutathione lyase [1]): 19 nM

O=C(O)CNC(=O)[C@H](CSC(=O)N(O)c1ccc(Cl)cc1)NC(=O)CC[C@H](NC(=O)CCNC(=O)CCNC(=O)CCNC(=O)CCNC(=O)CCNC(=O)CCNC(=O)CCCCCCC(=O)NCCC(=O)NCCC(=O)NCCC(=O)NCCC(=O)NCCC(=O)NCCC(=O)N[C@@H](CCC(=O)N[C@@H](CSC(=O)N(O)c1ccc(Cl)cc1)C(=O)NCC(=O)O)C(=O)O)C(=O)O
Ki (Lactoylglutathione lyase [2]): 0.96 nM

C#Cc1ccc(N(O)C(=O)SC[C@H](NC(=O)CC[C@H](N)C(=O)O)C(=O)NCC(=O)O)cc1
Ki (Lactoylglutathione lyase [1]): 7 nM

COC(=O)c1c(C)cc(Oc2cc(C)cc(O)c2O)cc1O
Ki (Lactoylglutathione lyase [3]): 230 nM

N[C@@H](CCC(=O)N[C@@H](CSC(=O)N(O)c1ccc(I)cc1)C(=O)NCC(=O)O)C(=O)O
Ki (Lactoylglutathione lyase [4]): 10 nM

Cc1cc(O)c(O)c(Oc2cc(C)c(C(=O)O)c(O)c2)c1
Ki (Lactoylglutathione lyase [3]): 150 nM

NS(=O)(=O)c1ccc2c(c1)S(=O)(=O)NC2=O
IC50 (Lactoylglutathione lyase [5]): 90000 nM
